Biological target: Delta-type opioid receptor (Homo sapiens, UniProt P41143)
Test: delta opioid receptor blockers – image-based, SAR follow-up (AID 2357)

Chain of Delta-type opioid receptor (P41143 whole entry): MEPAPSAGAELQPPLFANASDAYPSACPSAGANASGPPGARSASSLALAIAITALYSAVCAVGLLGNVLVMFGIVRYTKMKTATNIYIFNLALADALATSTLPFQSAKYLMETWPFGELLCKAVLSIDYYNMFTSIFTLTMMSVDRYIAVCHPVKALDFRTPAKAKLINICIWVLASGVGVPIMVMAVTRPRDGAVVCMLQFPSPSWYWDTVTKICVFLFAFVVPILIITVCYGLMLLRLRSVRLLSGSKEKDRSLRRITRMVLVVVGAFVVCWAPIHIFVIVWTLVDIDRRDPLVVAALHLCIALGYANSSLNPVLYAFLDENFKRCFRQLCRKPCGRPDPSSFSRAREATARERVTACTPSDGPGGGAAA

| Compound | IC50 |
| --- | --- |
| CCC(N=Nc1ccnc2cc(Cl)ccc12)c1ccc(O)cc1 (configuration not stated) [4-[1-[2-(7-chloroquinolin-4-yl)hydrazinyl]propylidene]cyclohexa-2,5-dien-1-one] | 32 µM |
| Oc1ccc(CN=Nc2ccnc3cc(Cl)ccc23)cc1O [(4Z)-4-[[2-(7-chloroquinolin-4-yl)hydrazinyl]methylidene]-2-hydroxycyclohexa-2,5-dien-1-one] | 18.9 µM |
